Assay results published in patent US7166688B1, “Chelation compositions” (LidoChem, Inc., priority 2000, dated 2007).

Key:
[1] = tested on: pepper plants; test: IDS versus EDTA chelates applied to the soil of pepper plants, tissue analysis; assay type: in vivo
Experimental: Below is the protocol and tissue analysis for the soil-applied iminodisuccinate and EDTA chelated mineral salts. Treatments: Control—no fertilizer 15-30-15 (fertilizer) alone 15-30-15 plus Cu IDS […] 15-30-15 plus Mn IDS […] 15-30-15 plus Zn IDS […] The standard fertilizer contained no micronutrients. Fertilizer was Hyponex 15-30-15. Each treatment was replicated 3 times. Soil treatments were applied as 50 ml per of the dilute blend of this invention. The pepper plants were transplanted into 1-gallon containers and grown until a suitable size. Plants were treated with the soil-applied chelate. Tissue samples were taken 30 days after the soil treatment had been applied. […] One gallon of fertilizer was poured over three replications of each set in the trial.

[2] = tested on: corn seed, NCE Hybrid 5817; test: Corn seed germination with IDS acid, root hairs; assay type: in vivo; conditions: 10 corn seed on germination tray, 1/10th of a gram of IDS acid, imbibed with water, day 5; control: root hairs only on short segments
Description: A 34% tetrasodium iminodisuccinate solution was protonated with concentrated HCl and crystalized under refrigeration in a dilute water/ethanol. The crystals were then filtered out of the solution and the residual sodium chloride was rinsed from the crystals with ice water. The IDS crystals were then dried. Two sets of 10 corn seed, NCE Hybrid 5817, were then placed on germination trays. One tray had 1/10th of a gram of the IDS acid placed in the center of the tray. The seeds were then imbibed with water. The seeds germinated as expected on day 2. On day 5 the root hairs began to show on the seedlings treated with the IDS. Photos were taken. This procedure was repeated on three occasions with simular results. There were also root hairs on the control set, however, the root hairs were only on short segments of the roots. […] This would be a substantial increase in the root surface area.

Compound: O=C(O)CC(NC(CC(=O)O)C(=O)O)C(=O)O (stereo not drawn) [IDS, iminodisuccinic acid]
- copper in tissue, TREATED ([1]; soil applied with 15-30-15, tissue 30 days after treatment, control 8.0): 10.8
- TREATED (dry weight) ([1]; soil applied, control 4.8): 6.4
- TREATED DRY ([1]; soil applied, dry weight, CONTROL DRY 4.8): 6.8
- copper in tissue, TREATED ADJUSTED ([1]; soil applied, tissue level times dry weight, control adjusted 38.08): 68.79
- copper in tissue, CHANGE IN (adjusted) ([1]; soil applied, treated adjusted minus control adjusted 38.08): 30.72
- CHANGE IN WEIGHT ([1]; soil applied, treated dry minus control dry 4.8): 2.09
- copper in tissue, % CHANGE (adjusted) ([1]; soil applied, versus control adjusted 38.08): 81%
- % CHANGE (dry weight) ([1]; soil applied, versus control dry 4.8): 44%
- root hairs on seedlings [2]: root hairs appear along the entire length of radical and lateral roots
